In US8952024B2, “Herbicidal pyrimidone derivatives” (E I du Pont de Nemours and Company, priority 2009, dated 2015):

Key:
Type in all cases: in vivo
[1] = tested on: corn (Zea mays); test: Test A pre-/postemergence plant response
Outline: (§1)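 Injury was scored visually after roughly ten days against untreated controls, 0 = no effect, 100 = complete control. Test chemicals in a surfactant-containing non-phytotoxic solvent were sprayed either onto soil preemergence or onto one- to two-leaf, 2–10 cm plants postemergence.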

[2] = tested on: wheat (Triticum aestivum); test: Test A pre-/postemergence plant response
Outline: as §1

[3] = tested on: velvetleaf (Abutilon theophrasti); test: Test A pre-/postemergence plant response
Outline: as §1

[4] = tested on: morningglory (Ipomoea spp.); test: Test A pre-/postemergence plant response
Outline: as §1

[5] = tested on: pigweed (Amaranthus retroflexus); test: Test A pre-/postemergence plant response
Outline: as §1

[6] = tested on: barnyardgrass (Echinochloa crus-galli); test: Test A pre-/postemergence plant response
Outline: as §1

[7] = tested on: large crabgrass (Digitaria sanguinalis); test: Test A pre-/postemergence plant response
Outline: as §1

[8] = tested on: giant foxtail (Setaria faberii); test: Test A pre-/postemergence plant response
Outline: as §1

[9] = tested on: umbrella sedge (Cyperus difformis); test: Test B flooded paddy test
Outline: (§2)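 Plants were grown to the 2-leaf stage, then pots were flooded to 3 cm above the soil and compounds were applied directly into the paddy water. That depth was held throughout. After 13 to 15 days in a greenhouse, injury was visually rated against controls on a 0–100 scale.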

[10] = tested on: rice (Oryza sativa); test: Test B flooded paddy test
Outline: as §2

[11] = tested on: barnyardgrass (Echinochloa crus-galli); test: Test B flooded paddy test
Outline: as §2

[12] = tested on: ducksalad (Heteranthera limosa); test: Test B flooded paddy test
Outline: as §2

[13] = tested on: winter barley (Hordeum vulgare); test: Test B postemergence plant response; settings: for Plant response rating, Barley: Postemergence
Excerpt: At the same time, plants selected from these crop and weed species and also winter barley (Hordeum vulgare), canarygrass (Phalaris minor), chickweed (Stellaria media) and windgrass (Apera spica-venti) were planted in pots containing Redi-Earth® planting medium (Scotts Company, 14111 Scottslawn Road, Marysville, Ohio 43041) comprising spaghnum peat moss, vermiculite, wetting agent and starter nutrients and treated with postemergence applications of some of the test chemicals formulated in the same manner. Plants ranged in height from 2 to 18 cm (1- to 4-leaf stage) for postemergence treatments.
Treated plants and controls were maintained in a greenhouse for 13 to 15 days, after which time all treated plants were visually evaluated and compared to controls. Plant response ratings, summarized in Table B, are based on a scale of 0 to 100 where 0 is no effect and 100 is complete control. A dash (-) response means no test result.

[14] = Postemergence, 125 g ai/ha, visual injury, 0 to 100 scale (0 no effect, 100 complete control), approx. ten days
[15] = Postemergence, 500 g ai/ha, 0 to 100 scale, 0 = no effect, 100 = complete control, approx. ten days
[16] = Preemergence, 125 g ai/ha, 0 to 100 scale, 0 = no effect, 100 = complete control
[17] = Preemergence, 500 g ai/ha, visual injury, 0 to 100 scale (0 no effect, 100 complete control), approx. ten days
[18] = 250 g ai/ha, flooded paddy test, visual rating on 0 to 100 scale (0 no effect, 100 complete control) after 13 to 15 days
[19] = Flood (flooded paddy test), 62 g ai/ha, scale 0 to 100, 0 is no effect, 100 is complete control, 13 to 15 days
[20] = Postemergence, 125 g ai/ha, 0 to 100 scale where 0 is no effect and 100 is complete control
[21] = Postemergence, 500 g ai/ha, visual injury, 0 to 100 scale (0 no effect, 100 complete control), approx. ten days
[22] = Preemergence, 500 g ai/ha, 0 to 100 scale, 0 = no effect, 100 = complete control
[23] = 31 g ai/ha, 0 to 100 scale (0 no effect, 100 complete control)

Cc1ccc(-n2c(-c3ccccc3)ncc(C(=O)C3=C(O)CCCC3=O)c2=O)c(C)c1 [Compound 28]
Corn plant response rating [1, 14]: 0
Plant response rating, Corn [1, 15]: 0
Plant response rating, Corn [1, 16]: 0
Plant response rating, Corn [1, 17]: 0
Wheat plant response rating [2, 14]: 0
Plant response rating, Wheat [2, 15]: 0
Plant response rating, Wheat [2, 16]: 0
Plant response rating, Wheat [2, 17]: 0
Velvetleaf plant response rating [3, 14]: 100
Plant response rating, Velvetleaf [3, 15]: 100
Plant response rating, Velvetleaf [3, 16]: 20
Plant response rating, Velvetleaf [3, 17]: 80
Morningglory plant response rating [4, 14]: 0
Plant response rating, Morningglory [4, 15]: 10
Plant response rating, Morningglory [4, 16]: 20
Plant response rating, Morningglory [4, 17]: 80
Pigweed plant response rating [5, 14]: 100
Plant response rating, Pigweed [5, 15]: 100
Plant response rating, Pigweed [5, 16]: 80
Plant response rating, Pigweed [5, 17]: 100
Barnyardgrass plant response rating [6, 14]: 30
Plant response rating, Barnyardgrass [6, 15]: 90
Plant response rating, Barnyardgrass [6, 16]: 10
Plant response rating, Barnyardgrass [6, 17]: 70
Crabgrass, Large plant response rating [7, 14]: 40
Plant response rating, Crabgrass, Large [7, 15]: 80
Plant response rating, Crabgrass, Large [7, 16]: 20
Plant response rating, Crabgrass, Large [7, 17]: 60
Foxtail, Giant plant response rating [8, 14]: 30
Plant response rating, Foxtail, Giant [8, 15]: 80
Plant response rating, Foxtail, Giant [8, 16]: 0
Plant response rating, Foxtail, Giant [8, 17]: 30
Plant response rating, Flood, Sedge, Umbrella [9, 18]: 80
Plant response rating, Sedge, Umbrella [9, 19]: 70
Plant response rating, Flood, Rice [10, 18]: 0
Plant response rating, Rice [10, 19]: 0
Plant response rating, Flood, Barnyardgrass [11, 18]: 20
Plant response rating, Barnyardgrass [11, 19]: 10
Plant response rating, Flood, Ducksalad [12, 18]: 85
Plant response rating, Ducksalad [12, 19]: 70

Cc1ccccc1-n1c(-c2cc(F)cc(F)c2)ncc(C(=O)C2=C(O)CCCC2=O)c1=O [Compound 159]
Plant response rating, Corn [1, 20]: 0
Corn plant response rating [1, 21]: 70
Plant response rating, Corn [1, 16]: 0
Plant response rating, Corn [1, 22]: 40
Plant response rating, Wheat [2, 20]: 10
Wheat plant response rating [2, 21]: 60
Plant response rating, Wheat [2, 16]: 0
Plant response rating, Wheat [2, 22]: 20
Plant response rating, Velvetleaf [3, 20]: 100
Velvetleaf plant response rating [3, 21]: 100
Plant response rating, Velvetleaf [3, 16]: 70
Plant response rating, Velvetleaf [3, 22]: 100
Plant response rating, Morningglory [4, 20]: 100
Morningglory plant response rating [4, 21]: 100
Plant response rating, Morningglory [4, 16]: 0
Plant response rating, Morningglory [4, 22]: 50
Plant response rating, Pigweed [5, 20]: 100
Pigweed plant response rating [5, 21]: 100
Plant response rating, Pigweed [5, 16]: 100
Plant response rating, Pigweed [5, 22]: 100
Plant response rating, Barnyardgrass [6, 20]: 90
Barnyardgrass plant response rating [6, 21]: 100
Plant response rating, Barnyardgrass [6, 16]: 30
Plant response rating, Barnyardgrass [6, 22]: 90
Plant response rating, Crabgrass, Large [7, 20]: 90
Crabgrass, Large plant response rating [7, 21]: 90
Plant response rating, Crabgrass, Large [7, 16]: 80
Plant response rating, Crabgrass, Large [7, 22]: 100
Plant response rating, Foxtail, Giant [8, 20]: 90
Foxtail, Giant plant response rating [8, 21]: 100
Plant response rating, Foxtail, Giant [8, 16]: 60
Plant response rating, Foxtail, Giant [8, 22]: 90
Plant response rating, Barley ([13]; 8 g ai/ha, 0 to 100 scale): 0
Plant response rating, Barley ([13]; 16 g ai/ha, 0 to 100 scale): 20
Barley plant response rating (0 to 100 scale) ([13]; 62 g ai/ha, postemergence, 0 is no effect, 100 is complete control, 13 to 15 days): 50
Plant response rating, Barley [13, 23]: 20

CC1(C)CC(=O)C(C(=O)c2cnc(-c3ccccc3)n(-c3ccccc3)c2=O)=C(O)C1 [Compound 225]
Plant response rating, Corn [1, 20]: 10
Corn plant response rating [1, 21]: 50
Plant response rating, Corn [1, 16]: 0
Plant response rating, Corn [1, 22]: 20
Plant response rating, Wheat [2, 20]: 0
Wheat plant response rating [2, 21]: 40
Plant response rating, Wheat [2, 16]: 0
Plant response rating, Wheat [2, 22]: 30
Plant response rating, Velvetleaf [3, 20]: 100
Velvetleaf plant response rating [3, 21]: 100
Plant response rating, Velvetleaf [3, 16]: 80
Plant response rating, Velvetleaf [3, 22]: 100
Plant response rating, Morningglory [4, 20]: 100
Morningglory plant response rating [4, 21]: 100
Plant response rating, Morningglory [4, 16]: 30
Plant response rating, Morningglory [4, 22]: 80
Plant response rating, Pigweed [5, 20]: 100
Pigweed plant response rating [5, 21]: 100
Plant response rating, Pigweed [5, 16]: 90
Plant response rating, Pigweed [5, 22]: 100
Plant response rating, Barnyardgrass [6, 20]: 90
Barnyardgrass plant response rating [6, 21]: 100
Plant response rating, Barnyardgrass [6, 16]: 20
Plant response rating, Barnyardgrass [6, 22]: 90
Plant response rating, Crabgrass, Large [7, 20]: 90
Crabgrass, Large plant response rating [7, 21]: 100
Plant response rating, Crabgrass, Large [7, 16]: 60
Plant response rating, Crabgrass, Large [7, 22]: 100
Plant response rating, Foxtail, Giant [8, 20]: 70
Foxtail, Giant plant response rating [8, 21]: 90
Plant response rating, Foxtail, Giant [8, 16]: 40
Plant response rating, Foxtail, Giant [8, 22]: 80
Plant response rating, Barley ([13]; 16 g ai/ha, 0 to 100 scale): 5
Plant response rating, Barley [13, 23]: 20
Plant response rating, Barley ([13]; 62 g ai/ha, scale 0 to 100 (0 no effect, 100 complete control)): 35
Plant response rating, Barley ([13]; 125 g ai/ha, scale 0 to 100 (0 no effect, 100 complete control)): 40
